The values below come from publication PMC6148296 (Scientific Reports, 2018).

Data set [1] addresses T1, rat μ-opioid receptor (Rattus norvegicus, UniProt P33535).
T1 construct: expressed in transfected cells; membranes prepared
Nature of the data set: [35S]GTPγS binding assay, MOR. The class given is biochemical. To be noted: for functional profile at μ opioid receptor: G protein activation; for Kb: read-out: Antagonist activity MOR Ke. (In general: GTPγS resists hydrolysis and so accumulates on activated G proteins.)

Data set [2] deals with T2, human κ-opioid receptor (Homo sapiens, UniProt P41145).
T2 construct: expressed in transfected cells; membranes prepared
Put plainly: [35S]GTPγS binding assay, KOR. The class given is biochemical.

The test system of data set [3] is mice. Put plainly: Rotorod test (sedation). It counts as in vivo. To be noted: for sedative effect, rotarod test: 15 min after injection. A general note: The rotarod test checks motor coordination on a turning rod.
Data set [4] deals with T2, human κ-opioid receptor. Nature of the data set: Receptor binding assay, [3H]U69593 competition. To be noted: CHO cell membranes, 1.5 nM [3H]U69593; read-out: κ binding affinity Ki.
Data set [5] addresses T1, rat μ-opioid receptor. Nature of the data set: Receptor binding assay, [3H]DAMGO competition.
Data set [6] concerns mice. Put plainly: Hot plate test. The class given is in vivo. Here is the method: (§1) Kunming strain male and female mice weighing 20 to 24 g were obtained from the Laboratory Animal Center, Chinese Academy of Sciences (Shanghai, China). Mice were housed in groups in a room maintained in a 12/12 h light/dark cycle in a temperature controlled environment with free access to food and water. All research protocols were approved by the Animal Care and Use Committee of Shanghai Institute of Materia Medica, Chinese Academy of Sciences. All experimental procedures were in strict accordance with the National Institutes of Health Guide for the Care and Use of Laboratory Animals.
Hot plate test was performed according to the method described previously[31],[34],[35]. Briefly, mice were placed on a 55 °C heated surface, the latency to licking or jumping was recorded. The cut-off time of 60 s was used to minimize tissue damage. Before formal study, the nociceptive response of each mouse was measured three times, and the mean of the 2nd and 3rd responses was used as pre-drug latency. The mouse not responding within 20 s was excluded. The percentage antinociception was calculated as 100× [(test latency-predrug latency)/(cut-off time -predrug latency)].
(In hot-plate and tail-flick tests a longer latency is read as antinociception.)

The subject of data set [7] is mice. Put plainly: Abdominal constriction test. The class given is in vivo. To be noted: for effect of Dezocine on morphine-induced antinociception: 0.05 mg/kg Dezocine; for ED50: Mus musculus; for effect of antagonist pretreatment on Dezocine-produced antinociception: antagonist 20 mg/kg i.p., 24 h before 0.25 mg/kg Dezocine.
The target in data set [8] is T3, rat δ-opioid receptor (Rattus norvegicus, UniProt P33533).
T3 construct: expressed in transfected cells; membranes prepared
Put plainly: [35S]GTPγS binding assay, DOR. It counts as biochemical. Particulars: read-out: Agonist activity DOR Emax (agonist efficacy at 10 μM).

Data set [9] deals with mice. Put plainly: Formalin test. To be noted: for ED50: Mus musculus, 0.25 h. It counts as in vivo. As to the method: as §1
The formalin test was performed according to our previous work[35]. In brief, the amount of time that mice spent licking or flinching the injected hind paw was recorded after injected with 20 μl 1.0% formalin at the plantar surface of the right hind paw. The mice were observed fro 60 min. The first 10 min was recorded as the phase I, and the rest of time was recorded as phase II. Percentage of analgesia was calculated as 100× (time of control – time of drug)/time of control.

In data set [10] the target is T3, rat δ-opioid receptor. Put plainly: Receptor binding assay, [3H]DPDPE competition. Particulars: read-out: δ binding affinity Ki.
Data set [11] concerns mice. On the set-up: method as in PMID 18353307, PMID 25816912. Particulars: 95% confidence limits in parentheses; cited from earlier work.
Data set [12] concerns mice. On the set-up: method as in PMID 18353307, PMID 25816912. To be noted: 95% confidence limits in parentheses; cited from earlier work. The source holds these as a separate data set.
The test system of data set [13] is mice. Further details: method as in PMID 18353307, PMID 25816912. To be noted: 95% confidence limits in parentheses; cited from earlier work. This is another data set of the same source.
The mark [14] stands for this setting: mice, 15 min after drug administration, 95% confidence limits in parentheses.

Values joined by “and” are separate entries in the source; they are usually repeats but may differ in a detail not shown here. Equal values may be shown once. “Also recorded” adds a separate entry of the source. Read-outs that look alike come from different tables or passages of the source. Marks after values point to notes of the source that are not given here.

As a reminder, the Emax is the maximal effect, on the per cent scale that the assay sets. Usually Ki stands for a dissociation constant, usually derived from enzyme kinetics or from competition with a known ligand. One may read the ED50 as the midpoint of the dose-response relation.

In the case of `C[C@@H](NC(=O)[C@@H](N)Cc1ccc(O)cc1)C(=O)NCC(=O)N(C)[C@@H](Cc1ccccc1)C(=O)NCCO` [DAMGO, [D-Ala2,N-Me-Phe4,Gly5-ol]-enkephalin], the maximal effect (Emax) in data set [1] (0.1 nM [35S]GTPγS, percentage of stimulated binding over basal, read-out: Agonist activity MOR Emax) came out at 241 ± 33.8%. In data set [1], the “functional profile at μ opioid receptor” value was “full agonist efficacy”.
For the compound `C[C@@]12CCCCC[C@@H](Cc3ccc(O)cc31)[C@@H]2N` [Dezocine], the “functional profile at κ opioid receptor” value in [2] (G protein activation) was “κ partial agonist”. Also, the “Agonist activity KOR Emax (agonist efficacy at 10 μM)” value in [2] (at 10 μM, % of the maximal stimulation obtained with U50,488 H) is given as 33.6 ± 2.4^d %. Besides, the Emax at 10 µM is 33 to 45% in [2] (read-out: Agonist activity KOR Emax (agonist efficacy at 10 μM), at 10 μM, % of the maximal stimulation obtained with U50,488 H); 45.8 ± 1.1% in data set [1] (read-out: Agonist activity MOR Emax (agonist efficacy at 10 μM)); 26.1 ± 1% in data set [8]. In addition, the Kb in data set [2] (rightward shift of U50,488 H concentration-response curve, single dose method, read-out: Antagonist activity KOR Ke) is 324.1 nM and 324 nM; in [1], 10.4 ± 4.9 nM; in data set [1] (rightward shift of DAMGO concentration-response curve, single dose method), 10.4 nM. The “sedative effect, rotarod test” value was “did not reach significant difference” in data set [3] (2.5 mg/kg, trend, p = 0.0881); “produced significant sedation” in [3] (5 mg/kg, p < 0.05 vs saline); “the sedative effect diminished” in data set [3] (7.5 and 25 mg/kg). Besides, the “dose that produced sedative side effects (ceiling effect)” value in data set [3] (rotarod test) was 5 mg/kg. Besides, the inhibition constant Ki in data set [4] is 22 ± 1.52 nM; in data set [5] (read-out: µ binding affinity Ki), 1.46 ± 0.1 nM; in [10], 399 ± 43.3 nM. Besides, the “selectivity for μ over δ opioid receptors” value in [5] (from Ki values) turned out to be 273 fold. In addition, in [5] (from Ki values), the “selectivity for μ over κ opioid receptors” value worked out at 15 fold. Besides, the “functional profile at μ opioid receptor” value in data set [1] is listed as “μ partial agonist”. The “maximal antinociceptive effect, hot-plate test” value in data set [6] (at 7.5 mg/kg, bell-shaped dose-response curve) is “around 60%”. Besides, in [6] (hot-plate test, time course), the “duration of consistent high (close to peak) antinociceptive response” value is “up to 1 h”. For the same compound, the “onset of antinociceptive action” value in data set [6] (hot-plate test, time course) came to 5 min. For the same compound, in [6] (i.v., s.c., or p.o.), the “maximal antinociception, hot-plate test, whatever the route of administration” value is “around 55%”. For the same compound, the “effect of Dezocine on morphine-induced antinociception” value in [7] (0.3 mg/kg morphine) was “did not affect”; in data set [7] (0.4 mg/kg morphine, p < 0.05), “significantly decreased; also recorded: significantly inhibited”. Also, the “effect of Dezocine co-administration on morphine antinociception” value in [7] (0.125 mg/kg Dezocine and 0.3 mg/kg morphine) is “produced higher antinociception than morphine used alone”. Also, the “effect of Dezocine on U50,488H-induced antinociception” value in [7] (Dezocine pretreatment, U50,488 H 1.2 mg/kg i.p., without β-FNA) is recorded as “did not inhibit; also recorded: did not affect”. Moreover, the ED50 is 0.2 mg/kg in data set [7] (0.25 h, mice, 15 min after drug administration, 95% confidence limits in parentheses, read-out: Antinociception ED50 Abdominal constriction test); 0.2 to 0.4 mg/kg in data set [7] (summary over abdominal constriction and formalin tests, read-out: ED50 values of Dezocine-induced antinociception); 0.4 mg/kg in [9] (mice, 15 min after drug administration, 95% confidence limits in parentheses, read-out: Antinociception ED50 Formalin test Phase I); 0.4 mg/kg in data set [9] (mice, 15 min after drug administration, 95% confidence limits in parentheses, read-out: Antinociception ED50 Formalin test Phase II). Besides, in data set [7] (ratio of ED50 values), the “potency relative to morphine, abdominal constriction test” value amounted to 4 fold. The “effect of Dezocine on U50,488H-induced antinociception in the presence of β-FNA” value in data set [7] (β-FNA pretreatment, U50,488 H 1.2 mg/kg i.p., p < 0.05) is “significantly decreased”. In data set [9] (setting [14]), the “Antinociception ED50 Formalin test Phase I” value is listed as 0.4 (0.2–1.0) mg/kg. In addition, the “Antinociception ED50 Formalin test Phase II” value in data set [9] (setting [14]) was 0.4 (0.2–0.9) mg/kg. For the same compound, the “potency relative to morphine, formalin test phase I” value in data set [9] (ratio of ED50 values) was “approximately 13 fold”. In [9] (ratio of ED50 values), the “potency relative to morphine, formalin test phase II” value was found to be 9 fold.
In the case of `Oc1ccc2c3c1O[C@H]1c4[nH]c5c(c4C[C@@]4(O)[C@@H](C2)N(CC2CC2)CC[C@]314)C[C@@]1(O)[C@H]2Cc3ccc(O)c4c3[C@@]1(CCN2CC1CC1)[C@H]5O4` [nor-BNI, nor-binaltorphimine], in data set [7] (p < 0.05), the “effect of antagonist pretreatment on Dezocine-produced antinociception” value was “significantly decreased”.
On the same count and under the same terms, in the case of `COC(=O)/C=C/C(=O)N[C@@H]1CC[C@@]2(O)[C@H]3Cc4ccc(O)c5c4[C@@]2(CCN3CC2CC2)[C@H]1O5` [β-FNA, β-funaltrexamine] it was “significantly decreased”.
For the compound `CN1CC[C@]23c4c5ccc(O)c4O[C@H]2[C@@H](O)C=C[C@H]3[C@H]1C5` [Morphine], the “Antinociception ED50 Hot plate test” value in [11] was 6.9 (5.6–8.5)^a mg/kg. For the same compound, in [12], the “Antinociception ED50 Formalin test Phase I” value is listed as 5.1 (4.3–5.9)^b mg/kg and the “Antinociception ED50 Formalin test Phase II” value is listed as 3.1 (2.8–3.3)^b mg/kg. The “Antinociception ED50 Abdominal constriction test” value in data set [13] is listed as 0.8 (0.5–1.2)^a mg/kg.
